{"source": "patent US5955508A", "about": "“Method for the enhancement of lymphocyte activity against opportunistic microbial pathogens” (priority 1996, dated 1999)", "system": "INF-γ in CD4+ (CD8-) T cells", "assay": "INF-γ production by CD4+ (CD8-) T cells, flow cytometry", "format": "cell-based, human", "conditions": "for % Positive Cells (INF-γ immunopositive), d-FEN / INF-γ Titer, d-FEN: CD4+ (CD8-) T cells, Mean ± SEM; for activation at 0.05 µg/mL: Homo sapiens, T-cell", "text": "The T lymphocytes analyzed were obtained from 20 HIV+ patients (9 females and 11 males, 25-48 years of age). The patients were diagnosed as being HIV+ within the past 0.5-9 years, and 15 are being treated with antiviral drugs. The subjects' study identification number (indicates the order in which bloods were drawn), CD4+ and CD8+ counts (determined March, 1996, as part of the present study), age, sex, date of diagnosis, and pharmacotherapy are provided in Table 1.\nThe experimental protocol for this project is illustrated in Table A. Note that the cultures were exposed to two doses (5 and 50 ng/ml) of d-FEN in the mitogenesis assays, whereas only one dose (50 ng/ml) was used in the antifungal and cytokine release assays.\nCytokine Profiles. Peripheral mononuclear cells were isolated by the Ficoll-Hypaque method and washed twice with RPMI-1640 medium. Cell suspensions were made at 1×10^6 /ml and the cells activated with interleukin-2 (IL-2) for 18 h or 4 days at 37° C. under 5% CO^2 +95% air. Monensin (1 nM) then was added to the culture to block secretion of cytokines, and the cultures allowed to continue for another 3 h. The cells were washed twice with PBS+1% fetal calf serum (FCS) with 0.1% saponin+0.1% sodium azide, then washed once with PBS-1% FCS and stained with anti-cytokine MAb-FL conjugate for 30 min. Following two washes, the cells were analyzed by flow cytometry for production of IL-2, IFN-γ and TNF-α. The MAbs-FL conjugates were obtained from Pharmingen (San Diego, Calif.). Potential effects of on cytokine production were evaluated (a) as increases in the percentage of a T cell subset which produce the respective cytokine; and, (b) as increases in the amount of cytokine produced by each subset. The latter were analyzed as a shift of the cytokine histograms.\nThe data were analyzed by a one- or two-way analysis of variance (ANOVA) with repeated measures where appropriate ([…] version 1; Jandel, San Rafael, Calif.). Significant main effects were subjected to post hoc analysis using the Student-Newman Keuls All Pairwise Multiple Comparisons test or the Mann-Whitney U test.", "note": "Like-named read-outs stand apart in the source and are kept apart here."}
{"compound": "CCN[C@@H](C)Cc1cccc(C(F)(F)F)c1", "note": "[d-FEN]", "values": [{"measurement": "% Positive Cells (INF-γ immunopositive), d-FEN", "setting": "50 ng/ml, AIDS", "value": "18 ± 2", "unit": "%"}, {"measurement": "INF-γ Titer, d-FEN", "setting": "50 ng/ml, AIDS", "value": "336 ± 45 geometric mean channel fluorescence"}, {"measurement": "% Positive Cells (INF-γ immunopositive), d-FEN", "setting": "50 ng/ml, non-AIDS HIV+", "value": "16 ± 2", "unit": "%"}, {"measurement": "INF-γ Titer, d-FEN", "setting": "50 ng/ml, non-AIDS HIV+", "value": "473 ± 37 geometric mean channel fluorescence"}, {"measurement": "effect on INF-γ levels in words", "setting": "50 ng/ml, CD4+ T cells", "value": "did not have any significant effect"}, {"measurement": "activation at 0.05 µg/mL", "setting": "read-out: percent increase over VEH (printed under Titer, d-FEN), 50 ng/ml, CD4+ T cells, AIDS", "value": 38, "unit": "%"}, {"measurement": "activation at 0.05 µg/mL", "setting": "read-out: percent increase over VEH (printed under Titer, d-FEN), 50 ng/ml, CD4+ T cells, non-AIDS", "value": 33, "unit": "%"}, {"measurement": "activation at 0.05 µg/mL", "setting": "50 ng/ml, CD4+ T cells, all patients, p=0.007, read-out: increase in the percent of INF-γ immunopositive T cells", "value": "33 to 38", "unit": "%"}]}
